Data taken from PMC6716157 (Journal of the American Chemical Society, 2019).

Tests used:
[1] = molecular target: MsMftD (Mycolicibacterium smegmatis, UniProt A0QSB9); experiment: HPLC of product, aerobic; type: biochemical; settings: oxidative deamination to PMFT
[2] = molecular target: T1, MuMftD (MftD) (Mycobacterium ulcerans, UniProt A0PM50); experiment: HPLC of flavin released by heat from purified protein; type: binding; settings: copurified; bound reduced as isolated, released on oxidation
T1 sequence (A0PM50 1-390): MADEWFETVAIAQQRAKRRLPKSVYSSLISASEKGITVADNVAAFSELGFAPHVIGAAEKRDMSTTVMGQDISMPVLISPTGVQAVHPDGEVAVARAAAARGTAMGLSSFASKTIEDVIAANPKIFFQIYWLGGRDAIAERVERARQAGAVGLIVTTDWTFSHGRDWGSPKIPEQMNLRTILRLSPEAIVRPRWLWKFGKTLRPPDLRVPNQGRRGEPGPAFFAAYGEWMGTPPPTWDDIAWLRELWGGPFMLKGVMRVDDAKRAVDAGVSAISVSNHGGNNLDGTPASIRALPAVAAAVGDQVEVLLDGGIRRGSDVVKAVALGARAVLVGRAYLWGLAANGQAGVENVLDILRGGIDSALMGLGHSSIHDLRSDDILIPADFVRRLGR

[3] = molecular target: MsCDH (carveol dehydrogenase, Msmeg_1410) (Mycolicibacterium smegmatis, UniProt A0QSA5); experiment: UV-vis absorbance of copurified NADH at […] nm; type: binding; settings: pH 7.0, non-exchangeable, oxidised by PMFT
MsCDH (carveol dehydrogenase, Msmeg_1410), sequence (A0QSA5 1-283): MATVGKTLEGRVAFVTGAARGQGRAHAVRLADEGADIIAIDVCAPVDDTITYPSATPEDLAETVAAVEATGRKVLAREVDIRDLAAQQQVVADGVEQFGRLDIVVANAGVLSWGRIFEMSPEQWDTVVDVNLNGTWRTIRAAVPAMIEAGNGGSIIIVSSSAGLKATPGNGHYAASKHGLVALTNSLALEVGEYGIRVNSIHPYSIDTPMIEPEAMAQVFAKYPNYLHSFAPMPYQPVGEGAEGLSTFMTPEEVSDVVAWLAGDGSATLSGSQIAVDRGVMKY

MsMftD, sequence (A0QSB9 whole entry): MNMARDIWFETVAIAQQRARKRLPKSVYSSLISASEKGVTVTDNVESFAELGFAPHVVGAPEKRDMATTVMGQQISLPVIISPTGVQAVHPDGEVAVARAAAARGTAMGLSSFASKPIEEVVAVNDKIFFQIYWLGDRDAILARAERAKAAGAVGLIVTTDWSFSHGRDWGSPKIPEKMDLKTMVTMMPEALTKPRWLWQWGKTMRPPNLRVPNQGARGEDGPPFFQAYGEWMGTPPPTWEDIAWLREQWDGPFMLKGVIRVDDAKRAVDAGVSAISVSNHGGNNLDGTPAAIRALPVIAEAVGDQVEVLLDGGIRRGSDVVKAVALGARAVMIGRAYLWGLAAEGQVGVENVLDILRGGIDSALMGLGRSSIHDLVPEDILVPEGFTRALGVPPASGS

## CC1(C)C(Cc2ccc(O)cc2)NC(=O)C1N (stereo not drawn) [AHDP, 3-amino-5-[(p-hydroxyphenyl)methyl]-4,4-dimethyl-2-pyrrolidinone]
[1]
  HPLC of product, aerobic: the HPLC chromatogram for the MsMftD reaction showed similar results to that of MuMftD

## Cc1cc2nc3c(=O)[nH]c(=O)nc-3n(C[C@H](O)[C@H](O)[C@H](O)COP(=O)(O)O)c2cc1C [FMN]
[2]
  HPLC of flavin released by heat from purified protein; UV-vis: the absorbance features of the cofactor bound to MuMftD originated from FMN

## NC(=O)C1=CN([C@@H]2O[C@H](COP(=O)(O)OP(=O)(O)OC[C@H]3O[C@@H](n4cnc5c(N)ncnc54)[C@H](O)[C@@H]3O)[C@@H](O)[C@H]2O)C=CC1 [NADH]
[3]
  UV-vis absorbance of copurified NADH at 340 nm: PMFT is mediating the oxidation of NADH to NAD^+ on MsCDH
